These results are taken from patent US20150329498A1, “IRAK INHIBITORS AND USES THEREOF” (Nimbus Iris, Inc., priority 2014, published 2015).

The test system of assay [1] is IFNα production in human whole blood. Description: R848 induced IFNα production in human whole blood. Type of assay: cell-based. As to conditions: 0.2 uM R848, 20 hours. As to the method:
(§1) Compounds of the present invention were also studied in in vitro cytokine production assays. Exemplary protocols follow.
(§2) Human whole blood and hWBC assays: Human whole blood was diluted by combining whole blood with no serum RPMI medium at a ratio of 1:1. 180 ul/well of the diluted whole blood/well was added to a 96 well plate. For WBC assay 100,000 cells/well were seeded in a 96-well plate with a volume of 100 ul/well. To make the compound master plate 9 ul of 30 mM compound solution was added into the wells in the assigned rows, then serial solutions with 4x dilutions were made in DMSO. That is, 9 uL of 100% DMSO were added into each of the rest wells and 3 uL of compound solution was taken from the one-step higher concentration solution and mixed well with the DMSO. An intermediate compound dilution plate was made by mixing 4 uL of the compound solution from the compound master plate with 196 uL of no serum RPMI medium. hWBC or human whole blood was treated for 0.5 hour by adding 20 uL/well of the compound and the control solutions from the intermediate compound plate to the cell plate. 80 uL/well or 20 uL/well of stimulant were then added to the human whole blood or hWBC respectively. […] The supernatants were then collected and cytokine levels were measured with ELISA for TNFα (R&D Systems, #DY210) and IFNα (R&D Systems, #41100-2) per manufacturer's instruction.

In assay [2] the test system is IFNα production in human white blood cells (hWBC). Description: CpG induced IFNα production in hWBC. Type of assay: cell-based. The conditions noted are these: 0.5 uM CpG, 20 hours. As to the method:
as §1, §2

The subject of assay [3] is TNFα production in human white blood cells (hWBC). Description: LPS induced TNFα production in hWBC. Type of assay: cell-based. As to conditions: 1 ug/mL LPS, 20 hours. As to the method:
as §1, §2

Assay [4] concerns TNFα production in human whole blood. The assay is described as follows: R848 induced TNFα production in human whole blood. The conditions noted are these: 1 uM R848, 20 hours. Type of assay: cell-based. How it is done:
as §1, §2

The test system is the same in assay [5]. The assay is described as follows: LPS induced TNFα production in human whole blood. As to conditions: 1 ug/mL LPS, 20 hours. It counts as cell-based. How it is done: as §1, §2
The subject of assay [6] is TNFα production in human white blood cells (hWBC). Description: R848 induced TNFα production in hWBC. It counts as cell-based. As to conditions: 1 uM R848, 20 hours. As to the method: as §1, §2
The subject of assay [7] is IL8 production in THP-1 cells. Description: LPS induced IL8 production assay in THP-1 cells. Type of assay: cell-based. As to conditions: Homo sapiens, 300 ng/mL LPS, measured at 16 hours. As to the method: Provided compounds were also assayed in an LPS (Lipopolysaccharide) or R848 (TLR-7 agonist) induced cytokine (TNFα and IL8) production assay in THP-1 cells, human white blood cells (hWBC), and human whole blood. The exemplary protocol for this assay in THP-1 cells was as follows below.
THP-1 cells from ATCC (TIB-202) were cultured in RPMI Medium 1640 (Invitrogen, Cat No. A10491-01), 10% fetal bovine serum (Invitrogen, Cat No. 10099141, Lot No. 8172882) containing 100 U/mL Penicillin, 100 μg/mL streptomycin (Invitrogen, Cat No. 15140-122), and 50 uM 2-Mercaptoethanol (Invitrogen, Cat No. 21985023). LPS-EK ultra pure (Invivogen, Cat No. tlrl-peklps) was used to induce IL8 and TNFα production, that was detected in the cell culture supernatant by IL8 HTRF kit (Cisbio, Cat No. 62IL8PEB) and TNFα HTRF kit (Cisbio, Cat No. 62TNFPEB), as per manufacturer instructions. Cells were cultured in 96 well assay plates at 100,000 cells per well, and compounds diluted in final 0.3% DMSO were pre-incubated with cells for 1 hour prior to stimulation with 300 ng/mL LPS. Cytokine production in cell supernatant was measured at 5 hours for TNFα production, and at 16 hours for IL8 production and assessment of cell viability.
The compound numbers correspond to the compound numbers in Table 1. Compounds having an activity designated as “A” provided an IC50≦0.5 μM; compounds having an activity designated as “B” provided an IC50 of 0.5-5.0 μM; compounds having an activity designated as “C” provided an IC50>5.0 μM. “NA” stands for “not assayed.”

In assay [8] the test system is LPS induced TNF alpha production. The assay is described as follows: Inhibition of LPS induced TNFα production in vivo. The conditions noted are these: female Lewis rats, dosed PO 2 hours prior to LPS IV, serum TNFα after 1 hr; minimum efficacious dose. How it is done: Selected compounds were tested in vivo in female Lewis rats for LPS induced TNF alpha production by dosing PO for 2 hours prior to LPS administration IV, followed by bleeding after 1 hr for measurement of TNFα produced in serum using ELISA (Biosource). […] Compounds having an activity designated as “A” provided a MED<5.0 mg/kg; compounds having an activity designated as “B” provided a MED of 5.0-20 mg/kg; compounds having an activity designated as “C” provided a MED of 20-50 mg/kg; compounds having an activity designated as “D” provided a MED of >50 mg/kg

Some results are limits rather than exact numbers.

The IC50 is the concentration needed to halve the response being measured. Read a high IC50 as weaker potency. As for `N#Cc1ccc2ncnc(N[C@H]3CC[C@H](N4CCOCC4)CC3)c2c1` [Compound I-3, 4-(((1r,4r)-4-morpholinocyclohexyl)amino)quinazoline-6-carbonitrile], the IC50 was 250 to 1000 nM in assay [1]; 1000 to 10000 nM in assay [2]; 250 to 1000 nM in assay [3]; 250 to 1000 nM in assay [4]; ≤ 250 nM in assay [5]; ≤ 250 nM in assay [6]. Moreover, in assay [7], the IC50 was ≤ 500 nM. Besides, the “MED (mg/kg)” value in assay [8] is “C (MED of 20-50 mg/kg)”.

Consider `N#Cc1ccc2ncnc(N[C@H]3CC[C@H](N4CCC5(CC4)CC5)CC3)c2c1` [Compound I-7, 4-(((1r,4r)-4-(6-azaspiro[2.5]octan-6-yl)cyclohexyl)amino)-quinazoline-6-carbonitrile], for which the IC50 in assay [1] was 250 to 1000 nM; in assay [2] it was ≤ 250 nM; in assay [3] it was 1000 to 10000 nM; in assay [4], ≤ 250 nM; in assay [5], ≤ 250 nM; in assay [6], ≤ 250 nM. In addition, the IC50 in assay [7] was ≤ 500 nM. The “MED (mg/kg)” value in assay [8] is “A (MED<5.0 mg/kg)”.
